Measurements: PubChem BioAssay AID1259407 (Chemical Carcinogenesis Research Information System (CCRIS), 2018)
Active and inactive are the calls of the source. How the calls were made is not given here.

Test system: CCRIS mutagenicity, Ames/micronucleus/aberration tests
Assay: CCRIS mutagenicity studies

With `Nc1ccc2ccccc2c1N=Nc1ccccc1` as the compound, how does the mutagenic call (Test System: AMES SALMONELLA TYPHIMURIUM, Strain/Indicator: TA98, Metabolic Activation: HAMSTER, LIVER, S-9, AROCLOR 1254 (2.5-20%), Method: PREINCUBATION) read?
The mutagenic call was “inactive; negative”.

What about the mutagenic call (Test System: AMES SALMONELLA TYPHIMURIUM, Strain/Indicator: TA98, Metabolic Activation: HAMSTER, LIVER, S-9, AROCLOR 1254, Method: STANDARD PLATE) of the same compound?
Its mutagenic call is “inactive; negative”.

What about the mutagenic call (Test System: AMES SALMONELLA TYPHIMURIUM, Strain/Indicator: TA98, Metabolic Activation: NONE, Method: STANDARD PLATE) of the same compound?
Its mutagenic call is “inactive; negative”.

What about the mutagenic call (Test System: AMES SALMONELLA TYPHIMURIUM, Strain/Indicator: TA98, Metabolic Activation: RAT, LIVER, S-9, AROCLOR 1254, Method: STANDARD PLATE) of the same compound?
Its mutagenic call is “inactive; negative”.

What about the mutagenic call (Test System: AMES SALMONELLA TYPHIMURIUM, Strain/Indicator: TA100, Metabolic Activation: HAMSTER, LIVER, S-9, AROCLOR 1254 (2.5-20%), Method: PREINCUBATION) of the same compound?
The mutagenic call was “inactive; negative”.

What about the mutagenic call (Test System: AMES SALMONELLA TYPHIMURIUM, Strain/Indicator: TA100, Metabolic Activation: HAMSTER, LIVER, S-9, AROCLOR 1254, Method: STANDARD PLATE) of the same compound?
Its mutagenic call is “inactive; negative”.

And the mutagenic call (Test System: AMES SALMONELLA TYPHIMURIUM, Strain/Indicator: TA100, Metabolic Activation: NONE, Method: STANDARD PLATE)?
The mutagenic call was “inactive; negative”.

And the mutagenic call (Test System: AMES SALMONELLA TYPHIMURIUM, Strain/Indicator: TA100, Metabolic Activation: RAT, LIVER, S-9, AROCLOR 1254, Method: STANDARD PLATE)?
The mutagenic call was “inactive; negative”.

And the mutagenic call (Test System: AMES SALMONELLA TYPHIMURIUM, Strain/Indicator: TA102, Metabolic Activation: HAMSTER, LIVER, S-9, AROCLOR 1254 (10%), Method: PREINCUBATION)?
Its mutagenic call is “inactive; negative”.

And the mutagenic call (Test System: AMES SALMONELLA TYPHIMURIUM, Strain/Indicator: TA102, Metabolic Activation: NONE, Method: PREINCUBATION)?
Its mutagenic call is “inactive; negative”.

What about the mutagenic call (Test System: AMES SALMONELLA TYPHIMURIUM, Strain/Indicator: TA102, Metabolic Activation: RAT, LIVER, S-9, AROCLOR 1254 (10%), Method: PREINCUBATION) of the same compound?
Its mutagenic call is “inactive; negative”.

What about the mutagenic call (Test System: AMES SALMONELLA TYPHIMURIUM, Strain/Indicator: TA1535, Metabolic Activation: HAMSTER, LIVER, S-9, AROCLOR 1254, Method: STANDARD PLATE) of the same compound?
The mutagenic call was “inactive; negative”.

What about the mutagenic call (Test System: AMES SALMONELLA TYPHIMURIUM, Strain/Indicator: TA1535, Metabolic Activation: NONE, Method: STANDARD PLATE) of the same compound?
The mutagenic call was “inactive; negative”.

What about the mutagenic call (Test System: AMES SALMONELLA TYPHIMURIUM, Strain/Indicator: TA1535, Metabolic Activation: RAT, LIVER, S-9, AROCLOR 1254, Method: STANDARD PLATE) of the same compound?
The mutagenic call was “inactive; negative”.

And the mutagenic call (Test System: AMES SALMONELLA TYPHIMURIUM, Strain/Indicator: TA1537, Metabolic Activation: HAMSTER, LIVER, S-9, AROCLOR 1254, Method: STANDARD PLATE)?
Its mutagenic call is “inactive; negative”.

And the mutagenic call (Test System: AMES SALMONELLA TYPHIMURIUM, Strain/Indicator: TA1537, Metabolic Activation: NONE, Method: STANDARD PLATE)?
The mutagenic call was “inactive; negative”.

And the mutagenic call (Test System: AMES SALMONELLA TYPHIMURIUM, Strain/Indicator: TA1537, Metabolic Activation: RAT, LIVER, S-9, AROCLOR 1254, Method: STANDARD PLATE)?
Its mutagenic call is “inactive; negative”.

And the mutagenic call (Test System: AMES SALMONELLA TYPHIMURIUM, Strain/Indicator: TA1538, Metabolic Activation: HAMSTER, LIVER, S-9, AROCLOR 1254, Method: STANDARD PLATE)?
Its mutagenic call is “inactive; negative”.

What about the mutagenic call (Test System: AMES SALMONELLA TYPHIMURIUM, Strain/Indicator: TA1538, Metabolic Activation: NONE, Method: STANDARD PLATE) of the same compound?
Its mutagenic call is “inactive; negative”.

What about the mutagenic call (Test System: AMES SALMONELLA TYPHIMURIUM, Strain/Indicator: TA1538, Metabolic Activation: RAT, LIVER, S-9, AROCLOR 1254, Method: STANDARD PLATE) of the same compound?
The mutagenic call was “inactive; negative”.

What about the mutagenic call (Test System: MOUSE LYMPHOMA, Strain/Indicator: L5178Y (TK+/TK-), Metabolic Activation: NONE, Method: SUSPENSION/PLATE) of the same compound?
Its mutagenic call is “active; positive. reevaluation of results: equivocal”.
